# In US12110281B2, “Catechol derivatives or salt thereof, processes for preparing the same, and pharmaceutical compositions comprising the same” (HEXAPHARMATEC CO., LTD., priority 2018, dated 2024):
# Structures can show the parent of a compound that is named as a salt.
# Columns and labels:
# Hela cells = test: Autophagy-inducing activities in Hela cells (Autophagy Detection Kit); type: cell-based
# Method: The autophagy-inducing activities of the compounds of the present invention were measured in Hela cells (Korean Cell Line Bank), using the Autophagy Detection Kit (ab139484, Abcam), according to the manufacturer's instructions. Specifically, 100 μL of EBSS (Earle's Balanced Salt Solution, WELGENE (LB 002-03)) containing 10% fetal bovine serum (FBS) was added to each well of a 96-well plate. Hela cells (1×10^4 cells) were added to each well and then incubated overnight at 37° C. in a CO2 incubator so as to stabilize the cells. The medium of each well containing the stabilized cells was replaced with a medium obtained by adding 10 nM or 100 nM of the compounds prepared in Examples (test compounds) to a EBSS containing 10% FBS. As a positive control, rapamycin was dissolved in dimethyl sulfoxide and then treated at a concentration of 500 nM per well. After the treatments, the cells were incubated at 37° C. in a CO2 incubator for 4 hours or 24 hours and then washed twice with the 1× assay buffer (prepared by adding 9 mL of distilled water to the 10× assay buffer). EBSS containing 5% fetal bovine serum, 1 μL/ml of Green detection reagent and 1 μL/ml of Nuclear stain was added thereto in the amount of 100 μL per well. The cells were incubated for 1 hour at 37° C. in a CO2 incubator and then washed twice with the 1× assay buffer. The absorbance values were measured at 488 nm, using a microplate reader (Cytation 3). The tests were repeated four times.
# The absorbance values, which were obtained by treating Hela cells with the test compounds (100 nM) and the positive control (rapamycin, 500 nM) and then incubating for 4 hours as described in above, are shown in Table 1 below. And also, the absorbance values, which were obtained by treating Hela cells with the test compounds (10 nM or 100 nM) and the positive control (rapamycin, 500 nM) and then incubating for 24 hours as described in above, are shown in Table 2 below.
# [1] = tested on: dimethylnitrosamine (DMN)-induced liver injury male SD rats; test: Liver function-improving activities by oral administration in the liver injury model (1), 3 weeks; type: in vivo, rat; details: serum, 25 mg/kg oral once a day
# Description: The compounds according to the present invention were orally administered to dimethylnitrosamine (DMN)-induced liver injury male SD rats for 3 weeks, so as to evaluate liver function-improving activities. Specifically, 7-week-old male SD rats (Orient Bio, Korea) were accommodated to the laboratory environment at room temperature for 7 days. General symptoms were observed and then only healthy animals were used for the experiment. The rats were divided into 9 groups (n=5 for each group), the normal control group, the group to which only DMN is administered, and the groups to which both the compound of the present invention (the compounds of Example 2, 5, 6, 9, 10, 20 or 21) and DMN are administered. DMN was dissolved in purified water and then administered intraperitoneally at the dose of 10 mg/kg for 3 consecutive weeks (3 times per week, for 4 weeks). Blood samples were collected on Day 3 after the completion of the first-week liver injury inducement and then the ALT (Alanine Transaminase) values and the AST (Aspartate Transaminase) values were measured so as to confirm the liver injury thereof. The compounds of the present invention were administered for 3 weeks, i.e., from Day 4 after the completion of the first-week liver injury inducement to the DMN-administering period. The seven compounds of the present invention were dissolved in purified water or corn oil and then orally administered, using an oral sonde, at the dose of 25 mg/kg once a day for 3 weeks. Blood samples were collected on Day 0 (3 days after the completion of the first-week liver injury inducement) and Day 7, 14 and 21 after the administration of the test compounds. The collected blood was injected into a vacutainer tube containing a clot activator and then allowed to stand at room temperature for about 20 minutes so as to coagulate each blood sample. After centrifugation for 10 minutes, the resulting serums were subjected to blood-biochemical tests.
# [2] = test compound 10 nM, incubation for 24 hours
# [3] = test compound 100 nM, incubation for 4 hours
# [4] = test compound 100 nM, incubation for 24 hours
# [5] = 0 week (Day 0, before administration of test compound)
structure (smiles),measurement,setting,value
"CCN(CC)CCOc1ccc(-c2ccc(C(=O)NCCN(C(C)C)C(C)C)s2)cc1OC.Cl.Cl [Example 6, N-(2-(diisopropylamino)ethyl)-5-(4-(2-diethylamino)ethoxy-3-methoxyphenyl)thiophene-2-carboxamide hydrochloride]",Absorbance (at 488 nm),Hela cells; [2],1784.6
same,Absorbance (at 488 nm),Hela cells; [3],1670.5
same,Absorbance (at 488 nm),Hela cells; [4],1893.7
same,ALT values (average value),[1]; [5],68.02 U/L
same,AST values (average value),[1]; [5],141.78 U/L
same,ALT values (average value),[1]; 1 week,80.46 U/L
same,AST values (average value),[1]; 1 week,220.86 U/L
same,ALT values (average value),[1]; 2 weeks,98.94 U/L
same,AST values (average value),[1]; 2 weeks,215.42 U/L
same,ALT values (average value),[1]; 3 weeks,109.80 U/L
same,AST values (average value),[1]; 3 weeks,249.56 U/L
"CCN(CC)CCOc1ccc(-c2ccc(C(=S)NC(C)C)s2)cc1OC.Cl [Example 10, N-isopropyl-5-(4-(2-diethylamino)ethoxy-3-methoxyphenyl)thiophene-2-thiocarboxamide hydrochloride]",Absorbance (at 488 nm),Hela cells; [2],1729.3
same,Absorbance (at 488 nm),Hela cells; [3],1390.0
same,Absorbance (at 488 nm),Hela cells; [4],1882.3
same,ALT values (average value),[1]; [5],67.46 U/L
same,AST values (average value),[1]; [5],145.00 U/L
same,ALT values (average value),[1]; 1 week,85.06 U/L
same,AST values (average value),[1]; 1 week,202.52 U/L
same,ALT values (average value),[1]; 2 weeks,102.94 U/L
same,AST values (average value),[1]; 2 weeks,218.60 U/L
same,ALT values (average value),[1]; 3 weeks,102.94 U/L
same,AST values (average value),[1]; 3 weeks,199.34 U/L
"CCN(CC)CCOc1ccc(-c2ccc(C(=S)NCCN(C(C)C)C(C)C)s2)cc1OC.Cl.Cl [Example 8, N-(2-(diisopropylamino)ethyl)-5-(4-(2-diethylamino)ethoxy-3-methoxyphenyl)thiophene-2-thiocarboxamide hydrochloride]",Absorbance (at 488 nm),Hela cells; [2],1586.3
same,Absorbance (at 488 nm),Hela cells; [3],1315.2
same,Absorbance (at 488 nm),Hela cells; [4],1612.3
"CO[C@H]1C[C@@H]2CC[C@@H](C)[C@@](O)(O2)C(=O)C(=O)N2CCCC[C@H]2C(=O)O[C@H]([C@H](C)C[C@@H]2CC[C@@H](O)[C@H](OC)C2)CC(=O)[C@H](C)/C=C(\C)[C@@H](O)[C@@H](OC)C(=O)[C@H](C)C[C@H](C)/C=C/C=C/C=C/1C [Rapamycin, rapamycin, reference compound]",Absorbance (at 488 nm),"Hela cells; positive control 500 nM, incubation for 4 hours",1306.2
same,Absorbance (at 488 nm),"Hela cells; positive control 500 nM, incubation for 24 hours",1594.2
"CCN(CC)CCOc1ccc(-c2ccc(C(=O)N3CCN(C)CC3)s2)cc1OC.Cl.Cl [Example 2, N-(4-methylpiperazino)-5-(4-(2-diethylamino)ethoxy-3-methoxyphenyl)thiophene-2-carboxamide hydrochloride]",Absorbance (at 488 nm),Hela cells; [2],1829.3
same,Absorbance (at 488 nm),Hela cells; [3],1460.5
same,Absorbance (at 488 nm),Hela cells; [4],1866.3
same,ALT values (average value),[1]; [5],67.24 U/L
same,AST values (average value),[1]; [5],143.32 U/L
same,ALT values (average value),[1]; 1 week,101.70 U/L
same,AST values (average value),[1]; 1 week,210.86 U/L
same,ALT values (average value),[1]; 2 weeks,113.22 U/L
same,AST values (average value),[1]; 2 weeks,223.88 U/L
same,ALT values (average value),[1]; 3 weeks,126.10 U/L
same,AST values (average value),[1]; 3 weeks,250.76 U/L
"COc1cc(-c2ccc(C(=S)N3CCN(C)CC3)s2)ccc1O [Example 3, N-(4-methylpiperazino)-5-(4-hydroxy-3-methoxyphenyl)thiophene-2-thiocarboxamide hydrochloride]",Absorbance (at 488 nm),Hela cells; [2],1576.3
same,Absorbance (at 488 nm),Hela cells; [3],1193.8
same,Absorbance (at 488 nm),Hela cells; [4],1754.3
"CCN(CC)CCOc1ccc(-c2ccc(C(=S)N3CCN(C)CC3)s2)cc1OC.Cl.Cl [Example 4, N-(4-methylpiperazino)-5-(4-(2-diethylamino)ethoxy-3-methoxyphenyl)thiophene-2-thiocarboxamide hydrochloride]",Absorbance (at 488 nm),Hela cells; [2],1691.3
same,Absorbance (at 488 nm),Hela cells; [3],1580.6
same,Absorbance (at 488 nm),Hela cells; [4],1618.3
"COc1cc(-c2ccc(C(=O)NCC3(N(C)C)CCOCC3)s2)ccc1O.Cl [Example 20, N-((4-(dimethylamino)tetrahydro-2H-pyran-4-yl)methyl)-5-(4-hydroxy-3-methoxyphenyl)thiophene-2-carboxamide hydrochloride]",ALT values (average value),[1]; [5],69.80 U/L
same,AST values (average value),[1]; [5],136.28 U/L
same,ALT values (average value),[1]; 1 week,87.26 U/L
same,AST values (average value),[1]; 1 week,194.88 U/L
same,ALT values (average value),[1]; 2 weeks,104.34 U/L
same,AST values (average value),[1]; 2 weeks,209.56 U/L
same,ALT values (average value),[1]; 3 weeks,116.14 U/L
same,AST values (average value),[1]; 3 weeks,229.74 U/L
"CCN(CC)CCOc1ccc(-c2ccc(C(=O)NC(C)C)s2)cc1OC.Cl [Example 9, N-isopropyl-5-(4-(2-diethylamino)ethoxy-3-methoxyphenyl)thiophene-2-carboxamide hydrochloride]",Absorbance (at 488 nm),Hela cells; [2],1594.0
same,Absorbance (at 488 nm),Hela cells; [3],1320.2
same,Absorbance (at 488 nm),Hela cells; [4],1951.7
same,ALT values (average value),[1]; [5],67.64 U/L
same,AST values (average value),[1]; [5],140.64 U/L
same,ALT values (average value),[1]; 1 week,103.78 U/L
same,AST values (average value),[1]; 1 week,220.58 U/L
same,ALT values (average value),[1]; 2 weeks,111.80 U/L
same,AST values (average value),[1]; 2 weeks,241.06 U/L
same,ALT values (average value),[1]; 3 weeks,117.92 U/L
same,AST values (average value),[1]; 3 weeks,222.50 U/L
"COc1cc(-c2ccc(C(=S)NCCN(C(C)C)C(C)C)s2)ccc1O.Cl [Example 7, N-(2-(diisopropylamino)ethyl)-5-(4-hydroxy-3-methoxyphenyl)thiophene-2-thiocarboxamide hydrochloride]",Absorbance (at 488 nm),Hela cells; [2],1598.5
same,Absorbance (at 488 nm),Hela cells; [3],1325.5
same,Absorbance (at 488 nm),Hela cells; [4],1605.5
"COc1cc(-c2ccc(C(=O)N3CCN(C)CC3)s2)ccc1O [Example 1, hydrochloride]",Absorbance (at 488 nm),Hela cells; [2],1617.3
same,Absorbance (at 488 nm),Hela cells; [3],1321.2
same,Absorbance (at 488 nm),Hela cells; [4],1660.3
"COc1cc(-c2ccc(C(=O)NCCN(C(C)C)C(C)C)s2)ccc1O.Cl [Example 5, N-(2-(diisopropylamino)ethyl)-5-(4-hydroxy-3-methoxyphenyl)thiophene-2-carboxamide hydrochloride]",Absorbance (at 488 nm),Hela cells; [2],1557.3
same,Absorbance (at 488 nm),Hela cells; [3],1348.0
same,Absorbance (at 488 nm),Hela cells; [4],1618.3
same,ALT values (average value),[1]; [5],68.90 U/L
same,AST values (average value),[1]; [5],137.66 U/L
same,ALT values (average value),[1]; 1 week,96.60 U/L
same,AST values (average value),[1]; 1 week,187.26 U/L
same,ALT values (average value),[1]; 2 weeks,108.80 U/L
same,AST values (average value),[1]; 2 weeks,219.66 U/L
same,ALT values (average value),[1]; 3 weeks,111.00 U/L
same,AST values (average value),[1]; 3 weeks,234.22 U/L
"COc1cc(-c2ccc(C(=S)NC(C)C)s2)ccc1O [Example 11, N-isopropyl-5-(4-hydroxy-3-methoxyphenyl)thiophene-2-thiocarboxamide]",Absorbance (at 488 nm),Hela cells; [2],1459.7
same,Absorbance (at 488 nm),Hela cells; [3],1268.4
same,Absorbance (at 488 nm),Hela cells; [4],1731.0
